Measurements published in ChEMBL document CHEMBL1135056, “Differential inhibition of polymerase and strand-transfer activities of HIV-1 reverse transcriptase” (Bioorg Med Chem Lett, 2002).

Legend:
[1] = biological target: T1, Human immunodeficiency virus type 1 reverse transcriptase (Human immunodeficiency virus 1, UniProt Q72547); assay: Tested for its ability to inhibit HIV-1 reverse transcriptase strand transfer using wild type HIV-1-RT enzyme
[2] = biological target: T1, Human immunodeficiency virus type 1 reverse transcriptase; assay: Inhibition of HIV-1 reverse transcriptase polymerization using wild type HIV-1-RT enzyme
[3] = biological target: T1, Human immunodeficiency virus type 1 reverse transcriptase; assay: Tested for its ability to inhibit HIV-1 reverse transcriptase polymerization using A17 double mutant HIV-1-RT enzyme
[4] = biological target: T1, Human immunodeficiency virus type 1 reverse transcriptase; assay: Tested for its ability to inhibit HIV-1 reverse transcriptase strand transfer using A17 double mutant HIV-1-RT enzyme

Row | SMILES | IC50 [1] | IC50 [2] | IC50 [3] | IC50 [4]
1 | O=C(OCCc1ccc(O)cc1)c1cc(O)c(O)c(O)c1 | 4.5 µM | 7.9 µM | – | –
2 | O=C(OC1COc2ccccc2C1)c1cc(O)c(O)c(O)c1 (centres undefined) | 6.1 µM | > 100 µM | > 100 µM | 2.6 µM
3 | O=C(OCCc1ccccc1)c1cc(O)c(O)c(O)c1 | 6.9 µM | 72.9 µM | – | –
4 | O=C(OC1COc2cccc(O)c2C1)c1cc(O)c(O)c(O)c1 (centres undefined) | 8.7 µM | 45.5 µM | 64.7 µM | –
5 | O=C(OC1COc2cc(O)cc(O)c2C1)c1cc(O)c(O)c(O)c1 (centres undefined) | 6.2 µM | 3.8 µM | – | 5.5 µM
6 | O=C(OCCc1ccc(O)c(O)c1)c1cc(O)c(O)c(O)c1 | 0.6 µM | 10.7 µM | 6.3 µM | 10.5 µM
7 | COc1cc(OC)c2c(c1)OCC(OC(=O)c1cc(O)c(O)c(O)c1)C2 (centres undefined) | 0.9 µM | 72.8 µM | > 100 µM | 6.9 µM
8 | O=C(OC1COc2cc(O)cc(O)c2C1)c1cc(O)cc(O)c1 (centres undefined) | – | 96.3 µM | – | –
9 | O=C(OC1COc2cc(O)ccc2C1)c1cc(O)c(O)c(O)c1 (centres undefined) | 7.6 µM | 36.3 µM | 30.8 µM | –
10 | O=C(OC1COc2cc(O)cc(O)c2C1)c1ccc(O)c(O)c1 (centres undefined) | > 100 µM | 37.2 µM | > 100 µM | > 100 µM
11 | O=C(OC1COc2cc(O)cc(O)c2C1)c1ccccc1 (centres undefined) | > 100 µM | > 100 µM | > 100 µM | > 100 µM
